{"source": "patent US20040198752A1", "about": "“Method for inhibiting retinoid skin damage” (priority 2001, published 2004)", "key": {"[1]": {"details": "0.1, 0.5 and 1 mg/kg/day; cited from earlier work"}, "[2]": {"tested_on": "organ-cultured human skin", "experiment": "RA-induced epidermal hyperplasia in human skin organ culture", "assay_type": "cell-based", "excerpt": "Immediately upon biopsy, the tissue was immersed in culture medium consisting of Keratinocyte Basal Medium (KBM) (Clonetics, Inc., Walkersville, Md.). KBM is a low-Ca^2+, serum-free modification of MCDB-153 medium optimized for high-density keratinocyte growth (Wille J, Jr., Pittelkow M R, Shipley G D, Scott R E. Integrated control of growth and differentiation of normal human prokeratinocytes cultured in serum-free medium: clonal analyses, growth kinetics, and cell cycle studies. J Cell Physiol 1984;121:31-44). It was supplemented with CaCl2 to bring the final Ca^2+ concentration to 1.4 mM. After transport to the laboratory on ice, the biopsies were incubated in a 96-well dish containing 200 μL of Ca^2+-supplemented KBM with or without additional treatments. Cultures were incubated at 37° C. in an atmosphere of 95% air and 5% CO2. Incubation was for 8 days, with change of medium containing the various treatments every 2 days. […] For the experiment shown in FIG. 4, human skin keratome biopsies were subjected to organ culture in the presence or absence of 3 μM RA followed by RNA isolation and Northern blotting as previously described (Stoll SW, Elder J T. Retinoid regulation of heparin-binding EGF-lke growth factor gene expression in human keratinocytes and skin. Exp Dermatol, 1998;7:391-397), except that the concentration of Ca^2+ was adjusted to 0.1 mM or 1.4 mM by the addition of CaCl2. cDNA insert probes for detection of HB-EGF and 36B4 were prepared and labeled by random priming, as previously described (Stoll and Elder, Supra., 1998)."}, "[3]": {"tested_on": "tyrosine kinases residing outside the c-erbB family", "details": "1 μM; cited from earlier work"}, "[4]": {"tested_on": "human epidermal keratinocytes", "experiment": "51Cr-release cytotoxicity assay", "assay_type": "cell-based", "details": "for IC50: read-out: Cytotoxicity (ID50)", "protocol": "(§1) A ^51Cr-release assay was used to measure cytotoxic effects of the irreversible c-erbB-RTK antagonist. For this assay, keratinocytes were initially plated at 2×10^4 cells per well of a 24-well dish in growth medium (KGM) and treated with 1 μCi per well of ^51Cr. After allowing cells to incorporate ^51Cr for one day, the non-incorporated isotope was removed and the cells washed twice in KBM. The cells were then incubated for 18 hours with or without treatments as indicated in Results. At the end of the incubation period, the percentage of Incorporated ^51Cr that was released into the culture medium was determined."}, "[5]": {"experiment": "51Cr-release cytotoxicity assay", "assay_type": "cell-based, human", "details": "human, human epidermal keratinocytes; KBM + Ca2+; read-out: Cytotoxicity (ID50)", "protocol": "as §1"}, "[6]": {"tested_on": "human epidermal keratinocytes", "experiment": "Proliferation assay, keratinocytes in monolayer culture", "assay_type": "cell-based", "protocol": "(§2) Normal human epidermal keratinocytes were obtained from skin biopsies and maintained in monolayer culture using Keratinocyte Growth Medium (KGM) (Clonetics, Inc., Walkersville, Md.). KGM contains the same basal medium as KBM, but is further supplemented with a mixture of growth factors including 0.1 ng/mL EGF, 0.5 μg/mL insulin, and 2% bovine pituitary extract. In some experiments, the HaCaT line of immortalized human epidermal keratinocytes (Boukamp P, Petrussevska R T, Breitkreutz D, Hornung J, Markham A, Fusenig N E. Normal keratinization in a spontaneously immortalized aneuploid human keratinocyte cell line. J Cell Biol, 1988;106:761-771) was used in place of normal keratinocytes. We (J.V., S.W.S., and J.T.E., unpublished observations) and others (Chaturvedi V, Qin J Z, Denning M F, Choubey D, Diaz M O, Nickoloff B J. Apoptosis in proliferating, senescent, and immortalized keratinocytes. J Biol Chem, 1999;274:23358-23367) have observed that HaCaT cells grow well in KGM. Therefore, HaCaT cells and NHK were propagated in exactly the same manner. Fibroblasts obtained from human skin were grown in monolayer culture using Dulbecco's modified minimal essential medium supplemented with nonessential amino acids and 10% fetal bovine serum (DMEM-FBS). Both keratinocytes and fibroblasts were maintained at 37° C. in an atmosphere of 95% air and 5% CO2. Cells were sub-cultured by exposure to trypsin/EDTA and used at passage 2-3.\nFor proliferation assays, cells were initially plated at 4×10^4 cells per well of a 24-well dish in growth medium (KGM for keratinocytes or DMEM-FBS for fibroblasts). After allowing cells to attach for 1 to 2 hours, the medium was removed and the cells washed twice in KBM (keratinocytes) or Ca^2+-supplemented KBM (fibroblasts). The cells were then incubated for 48 hours with or without additional reagents as indicated in Results. At the end of the incubation period, the cells were harvested by trypsinization and enumerated using an automated particle counter (Coulter Electronics, Hialeah, Fla.)."}, "human dermal fibroblasts": {"tested_on": "human dermal fibroblasts", "experiment": "RA-induced survival of dermal fibroblasts in low-Ca2+ monolayer culture", "assay_type": "cell-based", "details": "3 μM RA, 48 hours, KBM 0.15 mM CaCl2", "protocol": "as §2, with “Cells were sub-cultured by exposure to trypsin/EDTA and used at passage 2-3.” left out"}, "HB-EGF mRNA": {"tested_on": "HB-EGF mRNA", "experiment": "HB-EGF mRNA in human skin organ culture (Northern blotting)", "assay_type": "cell-based", "details": "3 μM RA, 8 hours", "excerpt": "Immediately upon biopsy, the tissue was immersed in culture medium consisting of Keratinocyte Basal Medium (KBM) (Clonetics, Inc., Walkersville, Md.). KBM is a low-Ca^2+, serum-free modification of MCDB-153 medium optimized for high-density keratinocyte growth (Wille J, Jr., Pittelkow M R, Shipley G D, Scott R E. Integrated control of growth and differentiation of normal human prokeratinocytes cultured in serum-free medium: clonal analyses, growth kinetics, and cell cycle studies. J Cell Physiol 1984;121:31-44). It was supplemented with CaCl2 to bring the final Ca^2+ concentration to 1.4 mM. After transport to the laboratory on ice, the biopsies were incubated in a 96-well dish containing 200 μL of Ca^2+-supplemented KBM with or without additional treatments. Cultures were incubated at 37° C. in an atmosphere of 95% air and 5% CO2. Incubation was for 8 days, with change of medium containing the various treatments every 2 days. […]"}, "[7]": {"details": "examined at 1 μM, 5 μM and 10 μM"}}, "note": "Read-outs that look alike come from different tables or passages of the source.", "data": [{"smiles": "CC1=C(/C=C/C(C)=C/C=C/C(C)=C\\C(=O)O)C(C)(C)CCC1", "note": "[Accutane, 13-cis-retinoic acid]", "values": [{"measurement": "clearing of disease", "setting": "[1]", "result": "all dosages provided initial clearing of disease"}]}, {"smiles": "CNc1cc2c(Nc3cccc(Br)c3)ncnc2cn1", "note": "[PD 158780, N^4-(3-Bromo-phenyl)-N^6-methyl-pyrido[3,4-d]pyrimidine-4,6-diamine]", "values": [{"measurement": "antiproliferative activity", "setting": "[2]; [7]", "result": "detected only at 5 and 10 μM"}, {"measurement": "effects on RA-stimulated hyperplasia", "setting": "[2]; [7]", "result": "reversed the effects of RA"}]}, {"smiles": "C=CC(=O)Nc1cc2c(Nc3cccc(Br)c3)ncnc2cc1OCCCN1CCOCC1", "note": "[PD 169540, N-[4-(3-bromo-phenylamino)-7-(3-morpholin-4-yl-propoxy)-quinazolin-6-yl]-acrylamide]", "values": [{"measurement": "effect on tyrosine kinases residing outside the c-erbB family", "setting": "[3]", "result": "without effect"}, {"measurement": "IC50", "setting": "[4]; +EGF", "result": "> 1000", "unit": "nM"}, {"measurement": "IC50", "setting": "[4]; +insulin/pituitary extract", "result": "> 1000", "unit": "nM"}, {"measurement": "cytotoxicity by 51Cr release", "setting": "[4]; any of the concentrations tested", "result": "virtually no cytotoxicity"}, {"measurement": "IC50 at 18 h", "setting": "[5]", "result": "> 1000", "unit": "nM"}, {"measurement": "Inhibition of Growth (ID50)", "setting": "[6]; +EGF", "result": 6, "unit": "nM"}, {"measurement": "Inhibition of Growth (ID50)", "setting": "[6]; +insulin/pituitary extract", "result": 900, "unit": "nM"}, {"measurement": "Inhibition of Growth (ID50)", "setting": "[6]; KBM + Ca2+", "result": 8, "unit": "nM"}, {"measurement": "relative potency, organ culture hyperplasia and monolayer proliferation", "setting": "[6]; comparison of the two c-erbB-RTK antagonists", "result": "clearly the more potent compound in both assays"}, {"measurement": "reversal of RA-induced epidermal hyperplasia", "setting": "[2]; 0.5 μM and 0.1 μM inhibitor, 3 μM RA", "result": "also effective, albeit less so than 1 μM"}, {"measurement": "reversal of RA-induced epidermal hyperplasia", "setting": "[2]; 1 μM inhibitor, 3 μM RA", "result": "reversed the effects of 3 μM RA"}, {"measurement": "RA-stimulated epidermal thickness by keratinocyte counts (keratinocytes/block)", "setting": "[2]; RA + inhibitor, FIG. 2", "result": "reduction in hyperplasia"}, {"measurement": "reversal of RA-induced epidermal hyperplasia", "setting": "[2]; concentrations lower than 0.1 μM", "result": "no effect"}]}, {"smiles": "CC1=C(/C=C/C(C)=C/C=C/C(C)=C/C(=O)O)C(C)(C)CCC1", "note": "[RA, all-trans retinoic acid, reference compound]", "values": [{"measurement": "fibroblast survival", "setting": "human dermal fibroblasts", "result": "markedly and significantly promoted fibroblast survival"}, {"measurement": "number of Ki-67-positive cells", "setting": "[2]; 3 μM RA, 8 days", "result": "much larger number of Ki-67-positive cells than did the controls"}, {"measurement": "epidermal thickness (number of epidermal keratinocytes)", "setting": "[2]; 3 μM RA, 8 days, 1.4 mM Ca2+", "result": "The epidermis was thickened"}, {"measurement": "preservation of epithelial viability", "setting": "[2]; RA added to low-Ca2+ organ cultures", "result": "up to 12 days"}, {"measurement": "HB-EGF mRNA induction", "setting": "HB-EGF mRNA; 1.4 mM Ca2+", "result": "clearly dominant over the inhibitory effect of 1.4 mM Ca^2+"}, {"measurement": "HB-EGF mRNA induction", "setting": "HB-EGF mRNA; low-Ca2+ (0.1 mM)", "result": "strongly potentiated"}]}]}
